Experimental findings from patent US10150757B2, “Quinazolinone derivatives as PARP inhibitors” (Janssen Pharmaceutica NV, priority 2004, dated 2018) are described below.

Each structure is given as a SMILES string.

As a reminder, the melting point is the temperature of the solid-liquid transition.

The target of data set [1] is PARP-1 enzyme (Homo sapiens, UniProt P09874). The data set can be described thus: In vitro filtration assay for PARP-1 inhibitory activity. In kind it is biochemical. Particulars: [32P]-NAD, histones, nicked DNA; read-out: in vitro filter assay PARP-1 pIC50 (converted). On the procedure: In Vitro Filtration Assay for PARP-1 Inhibitory Activity
Compounds of the present invention were tested in an in vitro filtration assay assessing PARP-1 activity (triggered in the presence of nicked DNA) by means of its histone poly (ADP-ribosyl)ation activity using [^32P]-NAD as ADP-ribosyl donor. The radioactive ribosylated histones were precipitated by trichloroacetic acid (TCA) in 96-well filterplates and the incorporated [^32P] measured using a scintillation counter
A mixture of histones (stock solution: 5 mg/ml in H2O), NAD^+ (stock solution: 100 mM in H2O), and [^32P]-NAD^+ in incubation buffer (50 mM Tris/HCl, pH 8; 0.2 mM DTT; 4 mM MgCl2) was made. A mixture of the PARP-1 enzyme (5-10 μg/ml) and nicked DNA was also made. The nicked DNA was prepared as described in the in vitro SPA for PARP-1 inhibitory activity. Seventy-five μl of the PARP-1 enzyme/DNA mixture together with 1 μl of compound in DMSO and 25 μl of histones-NAD^+/[^32P]-NAD^+ mixture was added per well of a 96-well filterplate (0.45 μm, supplier Millipore). The final concentrations in the incubation mixture were 2 μg/ml for the histones, 0.1 mM for the NAD^+, […] (0.5 μC) for the [^32P]-NAD^+ and 2 μg/ml for the nicked DNA. Plates were incubated for 15 min. at room temperature and the reaction was terminated by the addition of 10 μl ice cold 100% TCA followed by the addition of 10 μl ice-cold BSA solution (1% in H2O). The protein fraction was allowed to precipitate for 10 min. at 4° C. and plates were vacuum filtered. The plates were subsequently washed with, for each well, 1 ml of 10% ice cold TCA, 1 ml of 5% ice cold TCA and 1 ml of 5% TCA at room temperature. Finally 100 μl of scintillation solution (Microscint 40, Packard) was added to each well and the plates were transferred to a TopCountNXT™ (supplier: Packard) for scintillation counting and values were expressed as counts per minute (cpm). For each experiment, controls (containing PARP-1 enzyme and DMSO without compound), a blank incubation (containing DMSO but no PARP-1 enzyme or compound) and samples (containing PARP-1 enzyme and compound dissolved in DMSO) were run in parallel. All compounds tested were dissolved and eventually further diluted in DMSO. In first instance, compounds were tested at a concentration of 10^−5M. […] In each test, the blank value was subtracted from both the control and the sample values. The control sample represented maximal PARP-1 enzyme activity. For each sample, the amount of cpm was expressed as a percentage of the mean cpm value of the controls. […] Herein the effects of test compounds are expressed as pIC50 (the negative log value of the IC50-value).

PARP-1 enzyme, sequence (P09874 whole entry): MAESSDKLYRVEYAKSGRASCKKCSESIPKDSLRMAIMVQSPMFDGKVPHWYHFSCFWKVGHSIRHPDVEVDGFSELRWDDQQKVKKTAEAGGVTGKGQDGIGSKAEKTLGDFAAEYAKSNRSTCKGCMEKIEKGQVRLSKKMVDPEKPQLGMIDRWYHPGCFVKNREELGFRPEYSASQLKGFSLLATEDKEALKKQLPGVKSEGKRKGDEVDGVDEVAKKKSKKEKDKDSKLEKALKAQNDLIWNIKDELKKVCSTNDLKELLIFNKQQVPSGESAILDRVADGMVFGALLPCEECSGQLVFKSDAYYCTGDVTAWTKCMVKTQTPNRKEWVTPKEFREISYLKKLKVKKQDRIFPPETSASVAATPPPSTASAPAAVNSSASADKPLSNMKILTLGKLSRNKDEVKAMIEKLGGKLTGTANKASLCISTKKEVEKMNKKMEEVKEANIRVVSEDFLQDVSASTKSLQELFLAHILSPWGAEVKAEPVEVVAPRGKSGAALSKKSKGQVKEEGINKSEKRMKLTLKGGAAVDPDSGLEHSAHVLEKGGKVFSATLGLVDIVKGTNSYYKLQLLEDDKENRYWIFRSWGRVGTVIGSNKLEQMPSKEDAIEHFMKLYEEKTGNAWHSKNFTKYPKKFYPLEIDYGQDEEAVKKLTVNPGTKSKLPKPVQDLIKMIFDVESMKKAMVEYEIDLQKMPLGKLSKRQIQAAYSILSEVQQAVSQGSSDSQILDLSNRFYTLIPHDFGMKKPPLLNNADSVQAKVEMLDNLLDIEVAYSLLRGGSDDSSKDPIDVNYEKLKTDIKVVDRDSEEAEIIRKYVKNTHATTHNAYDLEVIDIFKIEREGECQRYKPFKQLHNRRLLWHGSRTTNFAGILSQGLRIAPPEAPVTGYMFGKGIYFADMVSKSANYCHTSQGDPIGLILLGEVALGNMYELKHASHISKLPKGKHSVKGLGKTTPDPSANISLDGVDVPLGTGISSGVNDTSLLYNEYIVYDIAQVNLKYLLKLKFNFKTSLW

In the case of `O=c1nc(NCCCN2CCC(Nc3nccc4ccccc34)CC2)[nH]c2ccccc12` [Compound 40], the IC50 in data set [1] is 2240 nM. Consider `CO[C@@H]1CN(CCCNc2nc(O)c3ccccc3n2)CCN1NC(=O)c1cc(Cl)c(N)c2c1OC(C)(C)C2` [Compound 8], for which, in data set [1], the IC50 is 2110 nM. As to `CC1(C)Cc2c(N)c(Cl)cc(C(=O)NC3CCN(CCCCNc4nc(O)c5ccccc5n4)CC3)c2O1` [Compound 5], the IC50 in data set [1] was 2640 nM.

In the case of `O=c1[nH]c(NCCCN2CCN(c3nsc4ccccc34)CC2)nc2ccccc12` [Compound 24], the IC50 in data set [1] is 4950 nM. The same measure, in the same setting: the result for `CO[C@H]1CN(CCCNc2nc3ccccc3c(=O)[nH]2)CC[C@H]1NC(=O)c1cc(Cl)cc2c1OC(C)(C)C2` [Compound 18] reads 4520 nM. The same measure, in the same setting: the result for `O=c1[nH]c(NCCN2CCN(c3n[nH]c4cc(F)ccc34)CC2)nc2ccccc12` [Compound 41] reads 546 nM.

Consider `CCCCn1cc(C2CCN(CCCNc3nc4ccccc4c(=O)[nH]3)CC2)c2ccccc21` [Compound 28], for which the IC50 in data set [1] was 2820 nM.

`O=c1[nH]c(NCCCN2CCC(O)(c3ccc(Cl)cc3)CC2)nc2ccccc12` [Compound 2] had a melting point of 178.4 °C. In data set [1], the IC50 was 973 nM. As to `O=C(c1ccc(F)cc1)C1CCN(CCNc2nc3ccccc3c(=O)[nH]2)CC1` [Compound 46], the IC50 in data set [1] was 1870 nM. Still for that read-out and setting: the figure for `O=c1[nH]c(NCCN2CCC(c3n[nH]c4cc(F)ccc34)CC2)nc2ccccc12` [Compound 21] is 520 nM. On the same count and under the same terms, the result for `Nc1c(Cl)cc(C(=O)NC2CCN(CCCNc3nc(O)c4ccccc4n3)CC2)c2c1CCO2` [Compound 45] reads 3050 nM; that for `O=c1[nH]c(NCCCN2CCC(n3c(=O)[nH]c4ccccc43)CC2)nc2ccccc12` [Compound 29], 4650 nM; that for `O=c1[nH]c(NCCCN2CCN(c3n[nH]c4ccccc34)CC2)nc2ccccc12` [Compound 22], 467 nM. Still for that read-out and setting: the result for `O=c1[nH]c(NCCCN2CCN(c3n[nH]c4cc(F)ccc34)CC2)nc2ccccc12` [Compound 27] reads 424 nM; that for `O=c1[nH]c(NCCCN2CCC(c3noc4cc(F)ccc34)CC2)nc2ccccc12` [Compound 26], 1630 nM.

Take `CC1(C)Cc2c(N)c(Cl)cc(C(=O)NC3CCN(CCCNc4nc(O)c5ccccc5n4)CC3)c2O1` [Compound 4]: in data set [1], the IC50 was 3650 nM. On the same count and under the same terms, the result for `CO[C@@H]1CN(CCCNc2nc(O)c3ccccc3n2)CC[C@@H]1NC(=O)c1cc(Cl)c(N)c2c1OCCC2` [Compound 6] reads 2740 nM; that for `O=c1[nH]c(NCCCN2CCC(c3n[nH]c4cc(F)ccc34)CC2)nc2ccccc12` [Compound 25], 2320 nM. Still for that read-out and setting: the result for `O=c1[nH]c(NCCCN2CCC(Nc3cccc4ccccc34)CC2)nc2ccccc12` [Compound 42] reads 8950 nM; that for `Nc1c(Cl)cc(C(=O)OCC2CCN(CCNc3nc4ccccc4c(=O)[nH]3)CC2)c2c1OCCO2` [Compound 7], 3440 nM. Still for that read-out and setting: the result for `O=C(NC1CCN(CCCNc2nc3ccccc3c(=O)[nH]2)CC1)c1ccccc1` [Compound 23] reads 2540 nM. For the compound `O=c1[nH]c(NCCCN2CCC(c3c[nH]c4ccccc34)CC2)nc2ccccc12` [Compound 20], the IC50 in data set [1] was 5300 nM.

As for `O=c1[nH]c(NCCN2CCN(c3n[nH]c4ccccc34)CC2)nc2ccc(Cl)cc12` [Compound 1], the melting point is 186 °C.
